Source: PMC3474888 (Pharmaceutical research, 2012)

Test system: tubulin
Assay: tubulin assembly inhibition, turbidimetry at […] nm
Format: biochemical, Bos taurus
Settings: read-out: Inhibition of / Tubulin Assembly IC50±SD

IC50: 10 ± 0.6 µM
Compound: COc1ccc(N(C)c2nc(C)nc3cc[nH]c23)cc1 [compound 3, N-(4-Methoxyphenyl)-N,2-dimethyl-5H-pyrrolo[3,2-d]pyrimidin-4-amine]
